Data as given in US6458351B2, “Naturally extracted and synthetic hypoglycemic or hypolipidemic compositions” (priority 1999, dated 2002).

Tests used:
[1] = tested on: yeast cells (Yeast strain Carlsbergensis); assay: Yeast fermentation assay (rate of CO2 production under anaerobic conditions); type: cell-based, S. carlsbergensis; details: synthetic chromium complexes; for Activity in yeast fermentation assay, CO2 production (in words): different concentrations
Description: The cells were kept on a solid chromium depleted medium that contained 6.7 g yeast nitrogen base, 20 g of glucose, and 18 g agar per liter. Cells were grown over night in a liquid medium without Cr. Yeast cells were harvested during stationary phase, washed twice and resuspended in 0.1M phosphate buffer pH 5.7. An aliquot of 3×10^8 cells/ml was anaerobically incubated at 30° C. in Warburg vessels in the presence of 10 mM glucose and the examined fraction of GTF extracted from yeast. Enhancement of fermentation rate by natural or synthetic chromium compounds was measured.
Yeast cells were grown over night in liquid medium without Cr. Yeast cells were harvested during stationary phase, washed twice and resuspended in 0.1M phosphate buffer pH 5.7. An aliquot of 3×10^7 cells/ml was anaerobically incubated at 30° C. in Warburg vessels in the presence of 10 mM glucose and the examined fractions extracted from Saltbush.
The activity of the synthetic chromium complexes was examined in the yeast fermentation assay as described above. All the complexes were tested by adding samples of the subject complex, and measuring the rate of CO2 production.

[2] = tested on: streptozoatocin diabetic rats; assay: Effect on insulin activity / blood glucose in streptozotocin diabetic rats; type: in vivo; details: single dose; insulin at marginal dose 0.005-0.025 mg/Kg body weight
Description: Sprague Dawly male rats weighing 120-130 g were injected subcutanously with a single dose of streptozotocin (60 mg/kg body weight) in 0.5 ml citrate buffer, 0.05 M pH 4.5. Plasma glucose concentrations were measured seven days later using commercial glucometer. Animals with blood glucose higher than 250 mg/dl were chosen for the subsequent test with fractions purified from yeast extract or the Saltbush, as described in section 5.1 and 5.2.
When a marginal dose of insulin (0.005-0.025 mg/Kg body weight ) was injected into streptozoatocin diabetic rats a decrease of 10%-15% in blood glucose was observed after the injection. A single dose of active chromium fraction extraction from yeast decreased blood glucose by 15%-20%. A combination of both insulin and chromium containing natural compound from yeast created much higher reduction in blood glucose of 40%-45% reduction.

Row | Compound | Activity in yeast fermentation assay, CO2 production (in words) [1] | Inhibition of yeast fermentation at high concentrations (in words) [1] | Activity in yeast fermentation assay, CO2 production (in words) ([1]; listed as Chromium axcorbate) | Decrease in blood glucose [2]
1 | N[C@@H](CCC(=O)N[C@@H](CS)C(=O)NCC(=O)O)C(=O)O.[Cr] [Cr-GSH, Chromium-Glutathione] | increases the production of CO2 | partial inhibition | – | –
2 | CC(=O)N[C@@H](CS)C(=O)O.[Cr] [Cr-NAC, Chromium N-Acetyl Cysteine] | increases the production of CO2 | partial inhibition | – | –
3 | Chromium Ascorbate [Cr-Asc] | most active | without any inhibition | enhances the production of CO2 | –
4 | insulin | – | – | – | 10%-15%
